# Source: ChEMBL document CHEMBL1154336, “The discovery and optimisation of benzazepine sulfonamide and sulfones as potent agonists of the motilin receptor” (Bioorg Med Chem Lett, 2009)
# Assays:
# [1] = target: Motilin receptor (Homo sapiens, UniProt O43193); assay: Agonist activity at human recombinant motilin receptor expressed in CHO cells by FLIPR assay; type: functional, cell-based
# [2] = tested on: Liver microsomes; assay: Intrinsic clearance in rat liver microsomes after 30 mins; type: ADME, Microsome; details: 0.5 h
# [3] = tested on: Liver microsomes; assay: Intrinsic clearance in human liver microsomes after 30 mins; type: ADME, Microsome; details: 0.5 h
# [4] = target: Cytochrome P450 2D6 (Homo sapiens, UniProt P10635); assay: Inhibition of human recombinant CYP2D6; type: ADME
# [5] = tested on: Stomach; assay: Increase in electric field stimulated contractile response in New Zealand White rabbit gastric antrum at 1 uM after 60 mins; type: functional; details: Oryctolagus cuniculus, 1 h
# [6] = target: T1, Growth hormone secretagogue receptor type 1 (Homo sapiens, UniProt Q92847); assay: Agonist activity at human ghrelin receptor; type: functional
# [7] = tested on: Stomach; assay: Increase in electric field stimulated contractile response in New Zealand White rabbit gastric antrum at 3 uM after 60 mins; type: functional; details: Oryctolagus cuniculus, 1 h
# [8] = target: 5-hydroxytryptamine receptor 6 (Homo sapiens, UniProt P50406); assay: Agonist activity at 5HT6 receptor; type: functional
# [9] = target: D(2) dopamine receptor (Homo sapiens, UniProt P14416); assay: Agonist activity at dopamine D2 receptor; type: functional
# [10] = target: D(3) dopamine receptor (Homo sapiens, UniProt P35462); assay: Agonist activity at dopamine D3 receptor; type: functional
# [11] = target: T1, Growth hormone secretagogue receptor type 1; assay: Intrinsic activity at human ghrelin receptor relative to ghrelin
# [12] = Aqueous solubility at pH 7.4; type: physicochemical
# [13] = target: T2, Cytochrome P450 1A2 (Homo sapiens, UniProt P05177); assay: Inhibition of human recombinant CYP1A2; type: ADME
# T2 sequence (P05177 whole entry): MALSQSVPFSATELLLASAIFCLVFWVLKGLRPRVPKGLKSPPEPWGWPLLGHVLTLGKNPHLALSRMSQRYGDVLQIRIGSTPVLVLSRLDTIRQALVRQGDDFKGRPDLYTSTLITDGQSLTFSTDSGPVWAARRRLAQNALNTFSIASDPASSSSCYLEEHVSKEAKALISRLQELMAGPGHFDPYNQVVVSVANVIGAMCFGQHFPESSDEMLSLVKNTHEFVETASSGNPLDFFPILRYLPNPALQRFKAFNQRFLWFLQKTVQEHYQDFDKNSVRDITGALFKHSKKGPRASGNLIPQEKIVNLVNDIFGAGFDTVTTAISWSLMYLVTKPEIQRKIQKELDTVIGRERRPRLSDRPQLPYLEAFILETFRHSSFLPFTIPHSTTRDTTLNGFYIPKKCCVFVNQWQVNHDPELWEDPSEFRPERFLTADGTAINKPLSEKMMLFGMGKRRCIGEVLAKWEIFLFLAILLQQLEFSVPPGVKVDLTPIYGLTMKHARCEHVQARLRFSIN
# [14] = target: Cytochrome P450 2C9 (Homo sapiens, UniProt P11712); assay: Inhibition of human recombinant CYP2C9; type: ADME
# [15] = target: Cytochrome P450 2C19 (Homo sapiens, UniProt P33261); assay: Inhibition of human recombinant CYP2C19; type: ADME
# [16] = target: T3, Cytochrome P450 3A4 (Homo sapiens, UniProt P08684); assay: Inhibition of human recombinant CYP3A4 using diethoxyfluorescein as substrate; type: ADME
# [17] = target: T3, Cytochrome P450 3A4; assay: Inhibition of human recombinant CYP3A4 using 7-{3-(4-phenylpiperazin-1-ylmethyl)benzyl}resorufin as substrate; type: ADME
# [18] = target: Voltage-gated inwardly rectifying potassium channel KCNH2 (Homo sapiens, UniProt Q12809); assay: Inhibition of human ERG
# [19] = Half life in mouse at 10 mg/kg, po; type: ADME, organism-based; design: dose 10 mg/kg, route oral; details: in vivo
# [20] = Tmax in mouse at 10 mg/kg, po; type: ADME, organism-based; design: dose 10 mg/kg, route oral; details: in vivo
# [21] = Cmax in mouse at 10 mg/kg, po; type: ADME, organism-based; design: dose 10 mg/kg, route oral; details: in vivo
# T1 sequence (Q92847 whole entry): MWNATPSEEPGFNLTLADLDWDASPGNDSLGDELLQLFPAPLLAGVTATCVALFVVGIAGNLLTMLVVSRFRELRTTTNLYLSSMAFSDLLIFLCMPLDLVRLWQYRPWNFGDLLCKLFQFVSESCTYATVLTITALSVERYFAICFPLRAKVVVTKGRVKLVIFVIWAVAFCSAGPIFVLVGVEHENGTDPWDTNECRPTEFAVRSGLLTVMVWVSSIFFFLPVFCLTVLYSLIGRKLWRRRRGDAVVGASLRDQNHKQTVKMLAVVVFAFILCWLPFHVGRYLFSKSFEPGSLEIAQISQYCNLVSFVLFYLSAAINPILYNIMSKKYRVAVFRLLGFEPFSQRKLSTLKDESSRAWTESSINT
# Chain of 5-hydroxytryptamine receptor 6 (P50406 whole entry): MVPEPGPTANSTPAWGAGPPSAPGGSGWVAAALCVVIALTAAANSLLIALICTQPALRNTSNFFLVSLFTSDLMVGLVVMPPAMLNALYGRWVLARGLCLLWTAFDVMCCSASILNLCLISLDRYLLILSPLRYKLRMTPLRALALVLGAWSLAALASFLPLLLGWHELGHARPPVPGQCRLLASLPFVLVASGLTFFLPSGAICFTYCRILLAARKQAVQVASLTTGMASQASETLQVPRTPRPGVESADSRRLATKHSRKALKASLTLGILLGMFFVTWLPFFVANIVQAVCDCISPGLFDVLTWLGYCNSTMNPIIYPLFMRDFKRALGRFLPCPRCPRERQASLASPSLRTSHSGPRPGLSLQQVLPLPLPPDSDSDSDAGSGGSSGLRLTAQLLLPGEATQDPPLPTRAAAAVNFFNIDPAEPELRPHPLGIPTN
# Chain of Cytochrome P450 2C9 (P11712 whole entry): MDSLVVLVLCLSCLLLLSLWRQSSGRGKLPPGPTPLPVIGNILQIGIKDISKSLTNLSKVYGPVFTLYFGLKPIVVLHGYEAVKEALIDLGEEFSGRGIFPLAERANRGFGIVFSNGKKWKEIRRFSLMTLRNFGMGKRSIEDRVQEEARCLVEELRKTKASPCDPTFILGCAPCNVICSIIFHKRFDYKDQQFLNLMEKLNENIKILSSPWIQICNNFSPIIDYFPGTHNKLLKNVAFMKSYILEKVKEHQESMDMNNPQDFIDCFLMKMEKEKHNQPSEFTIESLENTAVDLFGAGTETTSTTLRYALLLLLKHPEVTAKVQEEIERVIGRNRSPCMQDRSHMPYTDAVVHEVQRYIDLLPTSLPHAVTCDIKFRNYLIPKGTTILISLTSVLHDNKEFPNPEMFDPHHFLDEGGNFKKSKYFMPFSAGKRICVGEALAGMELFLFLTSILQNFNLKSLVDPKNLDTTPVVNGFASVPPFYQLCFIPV
# Chain of Motilin receptor (O43193 whole entry): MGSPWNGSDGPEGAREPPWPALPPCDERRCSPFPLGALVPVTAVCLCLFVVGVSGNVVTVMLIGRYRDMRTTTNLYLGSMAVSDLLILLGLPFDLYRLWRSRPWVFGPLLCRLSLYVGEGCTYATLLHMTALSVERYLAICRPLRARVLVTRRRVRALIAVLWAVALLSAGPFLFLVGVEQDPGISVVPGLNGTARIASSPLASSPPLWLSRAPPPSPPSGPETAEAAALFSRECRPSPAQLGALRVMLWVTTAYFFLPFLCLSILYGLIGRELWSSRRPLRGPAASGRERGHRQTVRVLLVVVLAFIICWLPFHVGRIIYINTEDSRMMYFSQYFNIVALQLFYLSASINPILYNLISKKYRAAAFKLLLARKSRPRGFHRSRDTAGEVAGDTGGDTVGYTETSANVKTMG
# T3 sequence (P08684 whole entry): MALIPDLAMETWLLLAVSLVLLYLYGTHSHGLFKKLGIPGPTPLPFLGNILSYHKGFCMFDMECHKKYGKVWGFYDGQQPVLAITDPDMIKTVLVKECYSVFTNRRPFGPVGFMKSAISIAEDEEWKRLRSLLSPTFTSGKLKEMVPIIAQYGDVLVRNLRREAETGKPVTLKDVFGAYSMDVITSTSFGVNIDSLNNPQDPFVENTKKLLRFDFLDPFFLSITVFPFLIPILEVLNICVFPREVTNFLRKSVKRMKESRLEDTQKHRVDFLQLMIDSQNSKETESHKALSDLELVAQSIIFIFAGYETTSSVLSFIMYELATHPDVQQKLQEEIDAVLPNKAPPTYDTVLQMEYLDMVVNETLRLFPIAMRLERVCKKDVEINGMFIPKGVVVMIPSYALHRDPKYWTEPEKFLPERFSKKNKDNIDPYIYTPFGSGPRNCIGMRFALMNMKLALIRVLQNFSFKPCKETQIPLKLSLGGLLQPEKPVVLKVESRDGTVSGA
# Chain of D(3) dopamine receptor (P35462 whole entry): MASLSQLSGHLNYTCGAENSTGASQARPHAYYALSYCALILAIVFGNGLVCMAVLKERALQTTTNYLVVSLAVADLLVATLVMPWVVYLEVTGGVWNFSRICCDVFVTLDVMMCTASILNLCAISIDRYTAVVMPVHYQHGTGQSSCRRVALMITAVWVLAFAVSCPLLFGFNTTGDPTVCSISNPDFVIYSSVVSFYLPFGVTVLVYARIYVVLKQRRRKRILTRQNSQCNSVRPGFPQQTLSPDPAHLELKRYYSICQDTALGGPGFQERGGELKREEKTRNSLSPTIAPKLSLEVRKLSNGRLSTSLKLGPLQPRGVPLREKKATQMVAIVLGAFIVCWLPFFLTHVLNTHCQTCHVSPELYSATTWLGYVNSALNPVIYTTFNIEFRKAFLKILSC
# Chain of D(2) dopamine receptor (P14416 whole entry): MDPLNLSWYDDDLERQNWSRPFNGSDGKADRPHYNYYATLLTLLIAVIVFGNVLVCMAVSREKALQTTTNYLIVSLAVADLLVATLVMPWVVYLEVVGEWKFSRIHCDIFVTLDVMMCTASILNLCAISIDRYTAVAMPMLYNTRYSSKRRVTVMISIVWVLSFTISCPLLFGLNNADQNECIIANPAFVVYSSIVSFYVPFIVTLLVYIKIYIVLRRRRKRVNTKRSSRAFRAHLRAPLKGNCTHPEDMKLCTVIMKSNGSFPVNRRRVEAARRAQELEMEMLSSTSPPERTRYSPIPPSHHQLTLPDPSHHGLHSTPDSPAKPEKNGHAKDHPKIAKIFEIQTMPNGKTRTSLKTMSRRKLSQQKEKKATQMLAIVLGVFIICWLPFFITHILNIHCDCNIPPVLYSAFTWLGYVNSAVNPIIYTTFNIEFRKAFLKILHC
# Chain of Cytochrome P450 2D6 (P10635 whole entry): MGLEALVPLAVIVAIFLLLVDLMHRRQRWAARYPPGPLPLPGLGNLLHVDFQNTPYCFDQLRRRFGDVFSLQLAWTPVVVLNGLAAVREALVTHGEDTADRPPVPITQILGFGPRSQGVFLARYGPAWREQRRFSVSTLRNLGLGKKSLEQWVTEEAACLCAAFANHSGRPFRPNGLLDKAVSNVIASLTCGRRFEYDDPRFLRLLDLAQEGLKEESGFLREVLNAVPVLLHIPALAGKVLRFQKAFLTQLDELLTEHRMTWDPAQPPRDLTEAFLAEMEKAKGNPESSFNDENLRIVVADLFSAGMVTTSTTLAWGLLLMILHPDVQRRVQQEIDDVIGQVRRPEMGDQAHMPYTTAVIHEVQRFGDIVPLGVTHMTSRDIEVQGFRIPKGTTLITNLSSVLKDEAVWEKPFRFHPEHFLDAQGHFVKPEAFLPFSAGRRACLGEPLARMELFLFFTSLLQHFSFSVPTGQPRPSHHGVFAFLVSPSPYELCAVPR
# Chain of Cytochrome P450 2C19 (P33261 whole entry): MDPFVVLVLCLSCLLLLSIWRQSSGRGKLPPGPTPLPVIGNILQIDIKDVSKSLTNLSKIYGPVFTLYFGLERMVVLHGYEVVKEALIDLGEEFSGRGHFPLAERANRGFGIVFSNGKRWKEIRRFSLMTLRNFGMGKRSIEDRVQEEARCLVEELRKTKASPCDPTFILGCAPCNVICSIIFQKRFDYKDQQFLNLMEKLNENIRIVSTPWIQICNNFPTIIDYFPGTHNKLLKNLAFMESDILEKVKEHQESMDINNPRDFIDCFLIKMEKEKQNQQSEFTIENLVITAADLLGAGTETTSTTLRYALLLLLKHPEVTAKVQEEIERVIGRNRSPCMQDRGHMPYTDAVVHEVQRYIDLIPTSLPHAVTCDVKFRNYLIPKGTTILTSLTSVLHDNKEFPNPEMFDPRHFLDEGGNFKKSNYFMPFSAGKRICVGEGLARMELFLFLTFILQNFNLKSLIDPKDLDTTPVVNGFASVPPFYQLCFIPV
SMILES,EC50 [1],IC50 [4],EC50 [6],other results
CCCCc1ccc(S(=O)(=O)N(C)c2ccc3c(c2)CCNCC3)cc1,2510 nM,–,–,–
O=S(=O)(Cc1ccc2c(c1)CCNCC2)c1ccc(-c2ccc(F)cc2)nc1,5.01 nM,600 nM,> 1000 nM,CL [2]: < 0.5 mL/min/g; CL [3]: < 1 mL/min/g; Emax at 1 µM [5]: 54%
CC(C)S(=O)(=O)Nc1ccc2c(c1)CCN(Cc1ccn[nH]1)CC2,> 12600 nM,16000 nM,–,–
O=S(=O)(Cc1ccc2c(c1)CCNCC2)c1ccc(-c2ccc(F)cc2)cc1,12.6 nM,200 nM,> 10000 nM,CL [2]: < 1 mL/min/g; CL [3]: < 1 mL/min/g; Emax at 3 µM [7]: 166%
Cc1ccc(S(=O)(=O)Nc2ccc3c(c2)CCN(Cc2ccn[nH]2)CC3)cc1Cl,39.8 nM,–,79.4 nM,Ki [8]: 6.31 nM; Ki [9]: 398 nM; Ki [10]: 100 nM
O=S(=O)(Cc1ccc2c(c1)CCNCC2)c1ccc(Oc2ccc(F)cc2)nc1,501 nM,1700 nM,> 1000 nM,–
CC(C)COc1ccc(S(=O)(=O)Cc2ccc3c(c2)CCNCC3)cn1,39.8 nM,–,> 1000 nM,–
CC(C)Oc1ccc(S(=O)(=O)Nc2ccc3c(c2)CCN(Cc2cc[nH]n2)CC3)cc1,3.98 nM,1300 nM,158 nM,Ki [8]: 200 nM; Ki [9]: 631 nM; Ki [10]: 20 nM; Intrinsic activity [11]: 0.6
CCCCc1ccc(S(=O)(=O)Nc2ccc3c(c2)CCNCC3)cc1,1580 nM,–,–,–
CCCCc1ccc(S(=O)(=O)Nc2ccc3c(c2)CCN(Cc2cncn2C)CC3)cc1,3160 nM,–,–,–
CCCCc1ccc(S(=O)(=O)Nc2ccc3c(c2)CCN(Cc2[nH]cnc2C)CC3)cc1,3.16 nM,–,3.98 nM,Intrinsic activity [11]: 0.6
CCCCc1ccc(S(=O)(=O)Nc2ccc3c(c2)CCN(Cc2cc[nH]n2)CC3)cc1,–,–,–,Emax at 1 µM [5]: 47%; Intrinsic activity [11]: 0.7
CCCCc1ccc(S(=O)(=O)Nc2ccc3c(c2)CCN(Cc2cccs2)CC3)cc1,2510 nM,–,> 1000 nM,–
CCCCc1ccc(S(=O)(=O)Nc2ccc3c(c2)CCN(C2CCN(C)CC2)CC3)cc1,> 12600 nM,–,–,–
CN(C(=O)c1ccc(N2CCOCC2)nc1)c1ccc2c(c1)CCNCC2,> 12600 nM,–,–,–
CC1(C)CCc2cc(S(=O)(=O)Nc3ccc4c(c3)CCN(Cc3cc[nH]n3)CC4)ccc2O1,5.01 nM,500 nM,631 nM,–
CCCCc1ccc(S(=O)(=O)Nc2ccc3c(c2)CCN(Cc2ccc(NC(C)=O)s2)CC3)cc1,50.1 nM,–,> 1000 nM,–
O=S(=O)(Nc1ccc2c(c1)CCNCC2)c1ccc(N2CCOCC2)nc1,1580 nM,–,–,–
CCCCc1ccc(S(=O)(=O)Nc2ccc3c(c2)CCN(Cc2ccccc2)CC3)cc1,> 3160 nM,–,–,–
CCCCc1ccc(S(=O)(=O)Cc2ccc3c(c2)CCNCC3)cc1,126 nM,–,–,–
CCCCc1ccc(S(=O)(=O)Nc2ccc3c(c2)CCN(Cc2ccn[nH]2)CC3)cc1,2.51 nM,< 100 nM,79.4 nM,Ki [9]: 100 nM; Ki [10]: 3.98 nM; solubility [12]: 10000 µg/mL; IC50 [13]: 29000 nM; IC50 [14]: 600 nM; IC50 [15]: 8800 nM; IC50 [16]: 800 nM; IC50 [17]: 1900 nM; IC50 [18]: 2510 nM
CCCCc1ccc(S(=O)(=O)Nc2ccc3c(c2)CCN(CC2CCOC2)CC3)cc1 (configuration not stated),2000 nM,–,> 1000 nM,–
CN(Cc1ccc2c(c1)CCNCC2)C(=O)c1ccc(N2CCOCC2)nc1,> 12600 nM,–,–,–
O=C(Nc1ccc(N2CCOCC2)nc1)c1ccc2c(c1)CCNCC2,> 12600 nM,–,–,–
N#Cc1ccc(-c2ccc(S(=O)(=O)Cc3ccc4c(c3)CCNCC4)cn2)cc1,158 nM,–,> 1000 nM,–
O=S(=O)(Cc1ccc2c(c1)CCNCC2)c1ccc(-c2ccc(Cl)cc2)nc1,7.94 nM,< 100 nM,> 1000 nM,CL [2]: < 1 mL/min/g; CL [3]: < 1 mL/min/g

SMILES,EC50 [1],IC50 [4],EC50 [6],other results
O=S(=O)(Nc1ccc2c(c1)CCN(Cc1cc[nH]n1)CC2)c1ccc(Cl)cc1,794 nM,–,> 10000 nM,–
O=S(=O)(Cc1ccc2c(c1)CCNCC2)c1ccc(Nc2ccc(F)cc2)nc1,20 nM,300 nM,> 1000 nM,CL [2]: < 0.5 mL/min/g; CL [3]: < 1 mL/min/g
O=S(=O)(Nc1ccc2c(c1)CCN(Cc1cc[nH]n1)CC2)c1ccc(-c2ccccn2)s1,7.94 nM,200 nM,> 10000 nM,Ki [8]: 158 nM; Ki [9]: > 794 nM; Ki [10]: 200 nM; IC50 [14]: 400 nM; Emax at 3 µM [7]: 190%
O=S(=O)(Cc1ccccc1)Nc1ccc2c(c1)CCN(Cc1ccn[nH]1)CC2,2510 nM,–,> 1000 nM,–
O=S(=O)(Cc1ccc2c(c1)CCNCC2)c1ccc(N2CCOCC2)nc1,501 nM,16000 nM,> 1000 nM,CL [2]: < 1 mL/min/g; CL [3]: < 0.5 mL/min/g
CCCCc1ccc(S(=O)(=O)Nc2ccc3c(c2)CCN(C2CCCC2)CC3)cc1,200 nM,–,> 1000 nM,–
O=S(=O)(Nc1ccc(N2CCOCC2)nc1)c1ccc2c(c1)CCNCC2,2510 nM,–,–,–
CN1CCOc2cc(S(=O)(=O)Nc3ccc4c(c3)CCN(Cc3cc[nH]n3)CC4)ccc21,31.6 nM,–,> 10000 nM,Ki [8]: 15.8 nM; Ki [9]: > 1000 nM; Ki [10]: 631 nM
CC(C)Oc1ccc(S(=O)(=O)Cc2ccc3c(c2)CCNCC3)cn1,158 nM,1600 nM,> 1000 nM,–
O=S(=O)(Cc1ccc2c(c1)CCNCC2)c1ccc(-c2ccc(F)c(F)c2)cc1,25.1 nM,100 nM,> 1000 nM,CL [2]: 1.1 mL/min/g; CL [3]: 1 mL/min/g
CCCCc1ccc(S(=O)(=O)Nc2ccc3c(c2)CCN(Cc2cnc[nH]2)CC3)cc1,7.94 nM,–,3.98 nM,Intrinsic activity [11]: 0.4
O=C(Nc1ccc2c(c1)CCNCC2)c1ccc(N2CCOCC2)nc1,> 12600 nM,–,–,–
O=S(=O)(Cc1ccc2c(c1)CCNCC2)c1ccccc1,> 12600 nM,–,> 10000 nM,–
O=S(=O)(Cc1ccc2c(c1)CCNCC2)c1ccc2ccccc2c1,1260 nM,–,> 10000 nM,–
Cc1ccc(S(=O)(=O)Nc2ccc3c(c2)CCN(Cc2cc[nH]n2)CC3)cc1Cl,–,–,–,Intrinsic activity [11]: 0.7
O=S(=O)(Nc1ccc2c(c1)CCN(Cc1cc[nH]n1)CC2)c1ccc(N2CCOCC2)nc1,6.31 nM,< 1000 nM,> 1000 nM,Ki [8]: 631 nM; Ki [9]: > 3160 nM; Ki [10]: 631 nM; solubility [12]: 371 µg/mL; CL [2]: 3.8 mL/min/g; CL [3]: 6.6 mL/min/g; IC50 [13]: > 8000 nM; IC50 [15]: > 8000 nM; IC50 [16]: > 8000 nM; IC50 [17]: > 8000 nM; IC50 [18]: > 15800 nM; half-life [19]: 1.5 h; Tmax [20]: 2 h; Cmax [21]: 273 ng/mL
O=S(=O)(Cc1ccc2c(c1)CCNCC2)c1ccc(-c2ccc(Cl)cc2)cc1,20 nM,< 100 nM,> 10000 nM,CL [2]: < 0.5 mL/min/g; CL [3]: < 1 mL/min/g
O=S(=O)(Nc1ccc2c(c1)CCN(Cc1cc[nH]n1)CC2)c1ccc(-c2ccccc2)cc1,10 nM,< 100 nM,1580 nM,Ki [8]: 126 nM; Ki [9]: 631 nM; Ki [10]: 31.6 nM; IC50 [16]: < 100 nM; IC50 [17]: < 100 nM; Intrinsic activity [11]: 0.7
CCCCc1ccc(S(=O)(=O)Nc2ccc3c(c2)CCN(Cc2cnc(C)[nH]2)CC3)cc1,63.1 nM,–,20 nM,Intrinsic activity [11]: 0.5
N#Cc1ccc(S(=O)(=O)Nc2ccc3c(c2)CCN(Cc2cc[nH]n2)CC3)cc1,7940 nM,7900 nM,–,IC50 [14]: 2500 nM
CCCCc1ccc(S(=O)(=O)Nc2ccc3c(c2)CCN(C2CCN(C(C)=O)CC2)CC3)cc1,> 2510 nM,–,–,–
O=C(Nc1ccc(F)cc1)c1ccc(S(=O)(=O)Cc2ccc3c(c2)CCNCC3)cn1,2000 nM,–,–,–
O=S(=O)(Cc1ccc2c(c1)CCNCC2)c1ccc(N2CCCCC2)nc1,63.1 nM,1100 nM,> 1000 nM,–
CCCCc1ccc(S(=O)(=O)Nc2ccc3c(c2)CCN(Cc2cccc(NC(C)=O)c2)CC3)cc1,501 nM,–,> 10000 nM,–
CC(C)(C)c1ccc(S(=O)(=O)Cc2ccc3c(c2)CCNCC3)cc1,3160 nM,–,> 10000 nM,–
